The numbers were not newly measured in patent US20130224268A1, “TOPICAL DELIVERY OF HORMONAL AND NON HORMONAL NANO FORMULATIONS, METHODS OF MAKING AND USING THE SAME” (NEWGEN BIOPHARMA CORP., priority 2012, published 2013), which cites them from elsewhere.

The data set deals with hydroxyproline, a major constituent amino acid in collagen. As to conditions: topical estradiol treatment.

Regarding `C[C@]12CC[C@@H]3c4ccc(O)cc4CC[C@H]3[C@@H]1CC[C@@H]2O` [estradiol, (17β)-estra-1,3,5(10)-triene-3,17-diol], the increase in hydroxyproline is listed as 38%.
